In patent US9963496B2, “Stable glucagon analogues and use for treatment of hypoglycaemia” (Novo Nordisk A/S, priority 2014, dated 2018):
*1 amine or outer side, *2 acyl side, *3 side chain or, on linkers, in order; H or OH if unused. Where a SMILES comes first, the peptide text is derived from it. Side-chain parts run from the residue outwards. [ ]: non-standard residue; d: D form. The star is where a group is joined. γGlu = O=C(O)[C@H](CCC(=O)[*:2])N[*:1]; Desaminohistidyl = O=C(CCc1c[nH]cn1)*; Aib = CC(C)(N)C(=O)O

Experiments:
human glucagon receptor = target: T1, human glucagon receptor (Homo sapiens, UniProt P47871); test: Assay (I)(b): glucagon receptor activation, CRE luciferase reporter gene assay in BHK cells; format: cell-based; details: BHK cells expressing human glucagon receptor and CRE luciferase, 3 h incubation; read-out: EC50 hGlucagonR
T1 construct: expressed in transfected cells; host or cells: BHK cells, clone BHK hGCGR A3*25; isolated membranes
Procedure: The purpose of this assay is to test the activity, or potency, of the derivatives of the invention, in vitro. The in vitro potency is the measure of human GLP-1 receptor and/or glucagon receptor activation, respectively, in a whole cell assay.
In vitro potency was determined by measuring the response of human GLP-1 or glucagon receptor, respectively, in a reporter gene assay. The assay was performed in a stably transfected BHK cell line that expressed either the human GLP-1 receptor or the human glucagon receptor and contained the DNA for the cAMP response element (CRE) coupled to a promoter and the gene for firefly luciferase (CRE luciferase). […] When assay incubation was completed, the luciferase substrate (luciferin) was added and the enzyme converted luciferin to oxyluciferin and produced bioluminescence. The luminescence was measured as the readout for the assay.
(b) Glucagon Receptor Activation
The cells used in this assay (clone pLJ6′-4-25) were BHK cells with BHK570 as a parent cell line expressing the CRE luciferase gene (clone BHK/KZ10-20-48) and were established by further transfection with the human glucagon receptor (clone pLJ6′ in pHZ-1 vector).
The cells were cultured at 5% CO2 in DMEM medium with 10% FBS, 1× GlutaMAX, 1 mg/mL G418, 240 nM MTX (methotrexate) and 1% pen/strep (penicillin/streptomycin). They were aliquoted and stored in liquid nitrogen. Before each assay, an aliquot was taken up and washed three times in PBS before being suspended at the desired concentration in assay buffer. For 96-well plates the suspension was made to give a final concentration of 5×10 EE3 cells/well.
Assay Medium consisted of DMEM w/o phenol red, 10 mM Hepes, lx GlutaMAX, 2% Ovalbumin and 0.2% Pluronic F-68.
Cell stocks were thawed in a 37° C. water bath. Cells were washed three times in PBS. The cells were counted and adjusted to 5×10 EE3 cells/50 μl (1×10 EE5 cells/mL) in Assay Medium. A 50 μl aliquot of cells was transferred to each well in the assay plate.
Stocks of the test compounds and reference compounds were diluted to a concentration of […] in Assay Medium. Compounds were diluted 10-fold to give the following concentrations: […], 2×10 EE-7 M, 2×10 EE-8 M; 2×10 EE-9 M, 2×10 EE-10 M, 2×10 EE-11 M, 2×10 EE-12 M and 2×10 EE-13 M. For each compound a blank assay buffer control was also included.
A 50 μl aliquot of compound or blank was transferred from the dilution plate to the assay plate. Compounds were tested at the following final concentrations: 1×10 EE-6 M, 1×10 EE-7 M, 1×10 EE-8 M; 1×10 EE-9 M, 1×10 EE-10 M, 1×10 EE-11 M and 1×10 EE-12 M and 1×10 EE-13 M.
The assay plate was incubated for 3 h in a 5% CO2 incubator at 37° C. The assay plate was removed from the incubator and allowed to stand at room temperature for 15 min. A 100 μl aliquot of steadylite plus reagent was added to each well of the assay plate (reagent is light sensitive). Each assay plate was covered with aluminum foil to protect it from light and shaken for 30 min at room temperature. Each assay plate was read in a Packard TopCount NXT instrument.
The data from the TopCount instrument was transferred to GraphPad Prism software. The software performed a non-linear regression (log(agonist) vs response-Variable slope (four parameter)). EC50 values were calculated by the software and reported in pM.

physchem = format: physicochemical; details: pH 7.5
Excerpt: Assay (III): ThT Fibrillation Assay for the Assessment of Physical Stability of Peptide Compositions The purpose of this assay is to assess the physical stability of the glucagon derivatives of the invention in aqueous solutions. Low physical stability of a peptide may lead to amyloid fibril formation, which is observed as well-ordered, thread-like macromolecular structures in the sample, which eventually may lead to gel formation. This has traditionally been measured by visual inspection of the sample. However, that kind of measurement is very cumbersome and depending on the observer. Therefore, the application of a small molecule indicator probe is much more advantageous. Thioflavin T (ThT) is such a probe and has a distinct fluorescence signature when binding to fibrils [Naiki et al. (1989) Anal. Biochem. 177, 244-249; LeVine (1999) Methods. Enzymol. 309, 274-284]. Here, as depicted in FIG. 1, F is the ThT fluorescence at the time t. The constant t0 is the time needed to reach 50% of maximum fluorescence. The two important parameters describing fibril formation are the lag-time calculated by t0−2τ and the apparent rate constant kapp 1/τ. Samples were prepared freshly before each assay. Each sample composition is described in the legends. The pH of the sample was adjusted to the desired value using appropriate amounts of concentrated NaOH and HCl. Thioflavin T was added to the samples from a stock solution in H2O to a final concentration of 1 μM. Sample aliquots of 200 μl (250 μM of the glucagon derivative/analogue in 10 mM HEPES buffer, pH 7.5) were placed in a 96 well microtiter plate (Packard OptiPlate™-96, white polystyrene). Usually, four or eight replica of each sample (corresponding to one test condition) was placed in one column of wells. The plate was sealed with Scotch Pad (Qiagen). Incubation at given temperature, shaking and measurement of the ThT fluorescence emission were done in a Fluoroskan Ascent FL fluorescence platereader (Thermo Labsystems). The plate was incubated 37° C. with orbital shaking adjusted to 960 rpm with an amplitude of 1 mm. Fluorescence measurement was done using excitation through a 444 nm filter and measurement of emission through a 485 nm filter. Each run was initiated by incubating the plate at the assay temperature for 10 min. The plate was measured every 20 minutes for a desired period of time. Between each measurement, the plate was shaken and heated as described. After completion of the ThT assay the four or eight replica of each sample was pooled and centrifuged at 20000 rpm for 30 minutes at 18° C. The supernatant was filtered through a 0.22 μm filter and an aliquot was transferred to a HPLC vial. The concentration of peptide in the initial sample and in the filtered supernatant was determined by reverse phase HPLC using an appropriate standard as reference. The percentage fraction the concentration of the filtered sample constituted of the initial sample concentration was reported as the recovery. The measurement points were saved in Microsoft Excel format for further processing and curve drawing and fitting was performed using GraphPad Prism. The background emission from ThT in the absence of fibrils was negligible. The data points were typically a mean of four or eight samples and shown with standard deviation error bars. Only data obtained in the same experiment (i.e. samples on the same plate) were presented in the same graph ensuring a relative measure of fibrillation between experiments. The data set may be fitted to Eq. (1).

T1 sequence (P47871 26-477): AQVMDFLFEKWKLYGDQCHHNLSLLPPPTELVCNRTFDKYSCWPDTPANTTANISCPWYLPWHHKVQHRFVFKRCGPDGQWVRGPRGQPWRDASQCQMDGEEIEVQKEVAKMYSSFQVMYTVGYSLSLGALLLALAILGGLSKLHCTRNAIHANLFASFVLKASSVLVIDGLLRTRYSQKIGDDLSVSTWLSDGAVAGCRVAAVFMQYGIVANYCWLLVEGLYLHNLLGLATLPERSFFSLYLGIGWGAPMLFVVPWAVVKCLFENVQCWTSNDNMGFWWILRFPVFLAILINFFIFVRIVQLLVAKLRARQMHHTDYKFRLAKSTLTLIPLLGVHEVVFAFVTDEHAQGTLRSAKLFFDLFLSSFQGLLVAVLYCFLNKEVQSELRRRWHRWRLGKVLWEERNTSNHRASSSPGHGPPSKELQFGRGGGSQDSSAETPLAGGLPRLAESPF

In the case of `CC(=O)N[C@@H](CCC(=O)N[C@@H](CCC(=O)N[C@@H](CCC(=O)N[C@@H](CCC(=O)NCCCC[C@H](NC(=O)[C@@H](NC(=O)[C@H](Cc1ccccc1)NC(=O)[C@H](CC(=O)O)NC(=O)[C@H](CCC(N)=O)NC(=O)[C@H](C)NC(=O)[C@H](CCCNC(=N)N)NC(=O)[C@H](CCCNC(=N)N)NC(=O)[C@H](CO)NC(=O)[C@H](CCC(=O)O)NC(=O)[C@H](CC(C)C)NC(=O)[C@H](Cc1ccc(O)cc1)NC(=O)[C@H](CCCCN)NC(=O)[C@H](CO)NC(=O)[C@H](Cc1ccc(O)cc1)NC(=O)[C@H](CC(=O)O)NC(=O)[C@H](CO)NC(=O)[C@@H](NC(=O)[C@H](Cc1ccccc1)NC(=O)[C@@H](NC(=O)CNC(=O)[C@H](Cc1c[nH]cn1)NC(=O)C(C)(C)NC(=O)CCc1c[nH]cn1)[C@@H](C)O)[C@@H](C)O)C(C)C)C(=O)N[C@@H](Cc1c[nH]c2ccccc12)C(=O)N[C@@H](CC(C)C)C(=O)N[C@@H](CC(C)C)C(=O)N[C@@H](CO)C(=O)N[C@H](C(=O)O)[C@@H](C)O)C(=O)O)C(=O)O)C(=O)O)C(=O)O` [Example 2, N^ϵ24-[(4S)-4-[[(4S)-4-[[(4S)-4-[[(4S)-4-acetamido-4-carboxybutanoyl]amino]-4-carboxybutanoyl]amino]-4-carboxybutanoyl]amino]-4-carboxybutanoyl]-[Imp1, Aib2, His3, Glu15, Lys24, Leu27, Ser28]-Glucagon] (Desaminohistidyl-[Aib]HGTFTSDYSKYLESRRAQDFVK([γGlu-γGlu-γGlu-γGlu-Ac])WLLST-OH), the EC50 (human glucagon receptor) is reported as 5 pM and the recovery at 250 μM (physchem) is reported as 104%.

In the case of `CC(=O)N[C@@H](CCC(=O)N[C@@H](CCC(=O)N[C@@H](CCC(=O)N[C@@H](CCC(=O)NCCCC[C@H](NC(=O)[C@@H](NC(=O)[C@H](Cc1ccccc1)NC(=O)[C@H](CCC(=O)O)NC(=O)[C@H](CCC(N)=O)NC(=O)[C@H](C)NC(=O)[C@H](CCCNC(=N)N)NC(=O)[C@H](CCCNC(=N)N)NC(=O)[C@H](CO)NC(=O)[C@H](CCC(=O)O)NC(=O)[C@H](CC(C)C)NC(=O)[C@H](Cc1ccc(O)cc1)NC(=O)[C@H](CCCCN)NC(=O)[C@H](CO)NC(=O)[C@H](Cc1ccc(O)cc1)NC(=O)[C@H](CC(=O)O)NC(=O)[C@H](CO)NC(=O)[C@@H](NC(=O)[C@H](Cc1ccccc1)NC(=O)[C@@H](NC(=O)CNC(=O)[C@H](Cc1c[nH]cn1)NC(=O)C(C)(C)NC(=O)CCc1c[nH]cn1)[C@@H](C)O)[C@@H](C)O)C(C)C)C(=O)N[C@@H](Cc1c[nH]c2ccccc12)C(=O)N[C@@H](CC(C)C)C(=O)N[C@@H](CC(C)C)C(=O)N[C@@H](CO)C(=O)N[C@H](C(=O)O)[C@@H](C)O)C(=O)O)C(=O)O)C(=O)O)C(=O)O` [Example 7, N^ϵ24-[(4S)-4-[[(4S)-4-[[(4S)-4-[[(4S)-4-acetamido-4-carboxybutanoyl]amino]-4-carboxybutanoyl]amino]-4-carboxybutanoyl]amino]-4-carboxybutanoyl]-[Imp1, Aib2, His3, Glu15, Glu21, Lys24, Leu27, Ser28]-Glucagon] (Desaminohistidyl-[Aib]HGTFTSDYSKYLESRRAQEFVK([γGlu-γGlu-γGlu-γGlu-Ac])WLLST-OH), the EC50 (human glucagon receptor) is reported as 2 pM and the recovery at 250 μM (physchem) is reported as 100%.

In the case of `CC(=O)N[C@@H](CCC(=O)N[C@@H](CCC(=O)N[C@@H](CCC(=O)N[C@@H](CCC(=O)NCCCC[C@H](NC(=O)[C@H](CCC(N)=O)NC(=O)[C@H](C)NC(=O)[C@H](CCCNC(=N)N)NC(=O)[C@H](CCCNC(=N)N)NC(=O)[C@H](CO)NC(=O)[C@H](CCC(=O)O)NC(=O)[C@H](CC(C)C)NC(=O)[C@H](Cc1ccc(O)cc1)NC(=O)[C@H](CCCCN)NC(=O)[C@H](CO)NC(=O)[C@H](Cc1ccc(O)cc1)NC(=O)[C@H](CC(=O)O)NC(=O)[C@H](CO)NC(=O)[C@@H](NC(=O)[C@H](Cc1ccccc1)NC(=O)[C@@H](NC(=O)CNC(=O)[C@H](Cc1c[nH]cn1)NC(=O)[C@H](CO)NC(=O)CCc1c[nH]cn1)[C@@H](C)O)[C@@H](C)O)C(=O)N[C@@H](Cc1ccccc1)C(=O)N[C@H](C(=O)N[C@@H](CCC(N)=O)C(=O)N[C@@H](Cc1c[nH]c2ccccc12)C(=O)N[C@@H](CC(C)C)C(=O)N[C@@H](CC(C)C)C(=O)N[C@@H](CO)C(=O)N[C@H](C(=O)O)[C@@H](C)O)C(C)C)C(=O)O)C(=O)O)C(=O)O)C(=O)O` [Example 13, Nϵ^21-[(4S)-4-[[(4S)-4-[[(4S)-4-[[(4S)-4-acetamido-4-carboxybutanoyl]amino]-4-carboxybutanoyl]amino]-4-carboxybutanoyl]amino]-4-carboxybutanoyl]-[Imp1, His3, Glu15, Lys21, Leu27, Ser28]-Glucagon] (Desaminohistidyl-SHGTFTSDYSKYLESRRAQK([γGlu-γGlu-γGlu-γGlu-Ac])FVQWLLST-OH), the EC50 (human glucagon receptor) is reported as 17 pM and the recovery at 250 μM (physchem) is reported as 39%.
